What is called IC50 is the midpoint of a concentration-inhibition curve.

In US20240293558A1, “KRAS INHIBITOR CONJUGATES” (Erasca, Inc., priority 2021, published 2024) one finds IC50 data, which are given here for ten molecules.

SMILES strings stand for the structures. Like-named read-outs stand apart in the source and are kept apart here.

The target of test [1] is T1, KRAS (WT) (Homo sapiens, UniProt P01116).
T1 construct: Biotinylated KRAS protein amino acids 1-169 (produced at Erasca); made in house
T1 sequence (P01116 1-169 isoform P01116-2): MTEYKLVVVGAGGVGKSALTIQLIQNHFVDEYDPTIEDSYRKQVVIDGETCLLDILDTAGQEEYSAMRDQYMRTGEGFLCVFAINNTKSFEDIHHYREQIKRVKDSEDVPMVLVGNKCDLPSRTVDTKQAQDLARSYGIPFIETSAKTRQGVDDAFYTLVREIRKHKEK
Description: In-vitro RAS-RAF binding assay (RRB), HTRF/FRET. The note with it: read-out: Inhibition of RAS-RAF Binding (in-vitro) KRAS (WT) IC50. Type of test: biochemical. As for the experimental part:
(§1) Biotinylated KRAS protein amino acids 1-169 (produced at […]) is labeled with streptavidin-terbium (lanthanide cryptate donor fluorophore) in assay buffer (50 mM HEPES, pH 7.5, 100 mM NaCl, 1 mM MgCl2, 1 mM DTT) at a final concentration of 30 nM. In a separate reaction mixture, 30 nM cRAF (RBD) (Abcam, Cambridge MA) is labeled with anti-GST d2 (acceptor fluorophore). Labeling reactions are incubated for 1 hour at room temperature. […] Following the compound incubation, SOS1 catalytic domain (produced at […]) and GTPgS are added to the reaction to initiate nucleotide exchange (60 minutes exchange reaction). Once in the GTP state KRAS will bind to cRAF. No binding will occur if KRAS remains in the GDP state. Compounds may block nucleotide exchange or may create a steric obstruction to cRAF-KRAS interaction by binding to the RAS effector site. […] A portion of this mixture is transferred to a white 384-well plate (20 uL per well in duplicate) and read on an HTRF compatible plate reader (ClarioSTAR). Fluorescent resonance energy transfer (FRET) is measured at equilibrium. FRET signal will be high if KRAS-cRAF binding occurs. FRET signal will be low if KRAS-cRAF binding is inhibited by the test compound. Table 2 represents the average of multiple runs of each compound.

In test [2] the target is KRAS G12D (Homo sapiens, UniProt P01116, G12D). The experiment in a line: In-vitro RAS-RAF binding assay (RRB), HTRF/FRET. The arrangement: Biotinylated KRAS protein amino acids 1-169 (produced at Erasca); made in house. Conditions: read-out: Inhibition of RAS-RAF Binding (in-vitro) KRAS (G12D) IC50. Type of test: biochemical. How it is done: as §1
KRAS G12D, sequence (P01116 1-169 isoform P01116-2 G12D): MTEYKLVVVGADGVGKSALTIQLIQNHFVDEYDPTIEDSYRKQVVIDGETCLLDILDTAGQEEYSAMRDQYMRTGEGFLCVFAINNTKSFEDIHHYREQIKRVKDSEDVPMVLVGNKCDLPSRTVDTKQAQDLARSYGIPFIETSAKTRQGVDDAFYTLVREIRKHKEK
In general terms: In TR-FRET formats the signal depends on donor and acceptor labels being close together.

Where [3] appears, read: Table 2, average of multiple runs of each compound.

On to `C#Cc1c(F)ccc2cc(O)cc(-c3ncc4c(N5CC6CCC(C5)N6)nc(OC[C@@H]5CCCN5CCCOCCC(=O)N[C@H](C(=O)N5C[C@H](O)C[C@H]5C(=O)N[C@@H](C)c5ccc(-c6ccccc6C#N)cc5)C(C)(C)C)nc4c3F)c12` [Example 40, (2S,4R)-1-((2S)-2-(3-(3-((2S)-2-(((4-(3,8-diazabicyclo[3.2.1]octan-3-yl)-7-(8-ethynyl-7-fluoro-3-hydroxynaphthalen-1-yl)-8-fluoropyrido[4,3-d]pyrimidin-2-yl)oxy)methyl)pyrrolidin-1-yl)propoxy)propanamido)-3,3-dimethylbutanoyl)-N-((S)-1-(2′-cyano-[1,1′-biphenyl]-4-yl)ethyl)-4-hydroxypyrrolidine-2-carboxamide], for which the results for the IC50 in test [1] (setting [3]) and in test [2] (setting [3]) were 0.0265 µM and 0.00888 µM, respectively.
The like results for `C#Cc1c(F)ccc2cc(O)cc(-c3ncc4c(N5CC6CCC(C5)N6)nc(OC[C@@H]5CCCN5CCCOCCC(=O)N[C@H](C(=O)N5C[C@H](O)C[C@H]5C(=O)N[C@@H](C)c5ccc(-c6cc(F)cc(F)c6F)cc5)C(C)(C)C)nc4c3F)c12` [Example 58, (2S,4R)-1-((2S)-2-(3-(3-((2S)-2-(((4-(3,8-diazabicyclo[3.2.1]octan-3-yl)-7-(8-ethynyl-7-fluoro-3-hydroxynaphthalen-1-yl)-8-fluoropyrido[4,3-d]pyrimidin-2-yl)oxy)methyl)pyrrolidin-1-yl)propoxy)propanamido)-3,3-dimethylbutanoyl)-4-hydroxy-N-((S)-1-(2′,3′,5′-trifluoro-[1,1′-biphenyl]-4-yl)ethyl)pyrrolidine-2-carboxamide] were, in that order, 0.0659 µM and 0.00955 µM.
On to `C#Cc1c(F)ccc2cc(O)cc(-c3ncc4c(N5CC6CCC(C5)N6)nc(OC[C@@H]5CCCN5CCCOCCCC(=O)N[C@H](C(=O)N5C[C@H](O)C[C@H]5C(=O)N[C@@H](C)c5ccc(-c6c(F)cccc6F)cc5)C(C)(C)C)nc4c3F)c12` [Example 34, (2S,4R)-1-((2S)-2-(4-(3-((2S)-2-(((4-(3,8-diazabicyclo[3.2.1]octan-3-yl)-7-(8-ethynyl-7-fluoro-3-hydroxynaphthalen-1-yl)-8-fluoropyrido[4,3-d]pyrimidin-2-yl)oxy)methyl)pyrrolidin-1-yl)propoxy)butanamido)-3,3-dimethylbutanoyl)-N—((S)-1-(2′,6′-difluoro-[1,1′-biphenyl]-4-yl)ethyl)-4-hydroxypyrrolidine-2-carboxamide], for which the IC50 worked out at 0.0634 µM in test [1] (setting [3]) and 0.00991 µM in test [2] (setting [3]).
For `Cc1cc(N)nc(-c2c(Cl)cc3c(N4CC5CCC(C4)N5)nc(OC[C@@H]4CCCN4CCCOCCCOc4cc(-c5scnc5C)ccc4CNC(=O)[C@@H]4C[C@@H](O)CN4C(=O)[C@H](NC(=O)C4(F)CC4)C(C)(C)C)nc3c2F)c1C(F)(F)F` [Example 3, (2S,4R)—N-[[2-[3-[3-[(2S)-2-[[7-[6-amino-4-methyl-3-(trifluoromethyl)-2-pyridyl]-6-chloro-4-(3,8-diazabicyclo[3.2.1]octan-3-yl)-8-fluoro-quinazolin-2-yl]oxymethyl]pyrrolidin-1-yl]propoxy]propoxy]-4-(4-methylthiazol-5-yl)phenyl]methyl]-1-[(2R)-2-[(1-fluorocyclopropanecarbonyl)amino]-3,3-dimethyl-butanoyl]-4-hydroxy-pyrrolidine-2-carboxamide], the IC50 in test [1] (Table 1) is greater than 10 µM; in test [1] (setting [3]), greater than 10 µM; in test [2] (Table 1), 0.064 µM; in test [2] (setting [3]) it was 0.0643 µM.
On to `Cc1ncsc1-c1ccc([C@H](C)NC(=O)[C@@H]2C[C@@H](O)CN2C(=O)[C@@H](NC(=O)CCCCN2CCC[C@H]2COc2nc(N3CC4CCC(C3)N4)c3cc(C(F)(F)F)c(-c4ccc(F)c5sc(N)c(C#N)c45)c(F)c3n2)C(C)(C)C)cc1` [Example 90, (2S,4R)-1-((2S)-2-(5-((2S)-2-(((7-(2-amino-3-cyano-7-fluorobenzo[b]thiophen-4-yl)-4-(3,8-diazabicyclo[3.2.1]octan-3-yl)-8-fluoro-6-(trifluoromethyl)quinazolin-2-yl)oxy)methyl)pyrrolidin-1-yl)pentanamido)-3,3-dimethylbutanoyl)-4-hydroxy-N-((S)-1-(4-(4-methylthiazol-5-yl)phenyl)ethyl)pyrrolidine-2-carboxamide], for which the values for the IC50 in test [1] (setting [3]) and in test [2] (setting [3]) were 0.043 µM and 0.013 µM, respectively.
The like results for `C[C@H](NC(=O)[C@@H]1C[C@@H](O)CN1C(=O)[C@@H](NC(=O)CCOCCCN1CCC[C@H]1COc1nc(N2CC3CCC(C2)N3)c2cc(C(F)(F)F)c(-c3ccc(F)c4sc(N)c(C#N)c34)c(F)c2n1)C(C)(C)C)c1ccc(-c2c(F)cccc2F)cc1` [Example 79, (2S,4R)-1-((2S)-2-(3-(3-((2S)-2-((((7R)-7-(2-amino-3-cyano-7-fluorobenzo[b]thiophen-4-yl)-4-(3,8-diazabicyclo[3.2.1]octan-3-yl)-8-fluoro-6-(trifluoromethyl)quinazolin-2-yl)oxy)methyl)pyrrolidin-1-yl)propoxy)propanamido)-3,3-dimethylbutanoyl)-N-((S)-1-(2′,6′-difluoro-[1,1′-biphenyl]-4-yl)ethyl)-4-hydroxypyrrolidine-2-carboxamide] were, in that order, greater than 10 µM and greater than 10 µM.
The like results for `Cc1ncsc1-c1ccc([C@H](C)NC(=O)[C@@H]2C[C@@H](O)CN2C(=O)[C@@H](NC(=O)CCCCN2CCC[C@H]2COc2nc(N3CC4CCC(C3)N4)c3cnc(-c4cc(O)cc5cccc(F)c45)c(F)c3n2)C(C)(C)C)cc1` [Example 82, (2S,4R)-1-((2S)-2-(5-((2S)-2-(((4-(3,8-diazabicyclo[3.2.1]octan-3-yl)-8-fluoro-7-(8-fluoro-3-hydroxynaphthalen-1-yl)pyrido[4,3-d]pyrimidin-2-yl)oxy)methyl)pyrrolidin-1-yl)pentanamido)-3,3-dimethylbutanoyl)-4-hydroxy-N-((S)-1-(4-(4-methylthiazol-5-yl)phenyl)ethyl)pyrrolidine-2-carboxamide] were, in that order, 0.304 µM and 0.00852 µM.
For `C#Cc1c(F)ccc2cc(O)cc(-c3ncc4c(N5CC6CCC(C5)N6)nc(OC[C@@H]5CCCN5CCCOCCC(=O)N[C@H](C(=O)N5C[C@H](O)C[C@H]5C(=O)N[C@@H](C)c5ccc(-c6c(C)ccnc6C)cc5)C(C)(C)C)nc4c3F)c12` [Example 47, (2S,4R)-1-((2S)-2-(3-(3-((2S)-2-(((4-(3,8-diazabicyclo[3.2.1]octan-3-yl)-7-(8-ethynyl-7-fluoro-3-hydroxynaphthalen-1-yl)-8-fluoropyrido[4,3-d]pyrimidin-2-yl)oxy)methyl)pyrrolidin-1-yl)propoxy)propanamido)-3,3-dimethylbutanoyl)-N-((S)-1-(4-(2,4-dimethylpyridin-3-yl)phenyl)ethyl)-4-hydroxypyrrolidine-2-carboxamide] the same measures were 0.0222 µM and 0.00767 µM.
For `C#Cc1c(F)ccc2cc(O)cc(-c3ncc4c(N5CC6CCC(C5)N6)nc(OC[C@@H]5CCCN5CCCOCCC(=O)N[C@H](C(=O)N5C[C@H](O)C[C@H]5C(=O)N[C@@H](C)c5ccc(-c6c(F)c(F)c(F)c(F)c6F)cc5)C(C)(C)C)nc4c3F)c12` [Example 59, (2S,4R)-1-((2S)-2-(3-(3-((2S)-2-(((4-(3,8-diazabicyclo[3.2.1]octan-3-yl)-7-(8-ethynyl-7-fluoro-3-hydroxynaphthalen-1-yl)-8-fluoropyrido[4,3-d]pyrimidin-2-yl)oxy)methyl)pyrrolidin-1-yl)propoxy)propanamido)-3,3-dimethylbutanoyl)-4-hydroxy-N-((S)-1-(2′,3′,4′,5′,6′-pentafluoro-[1,1′-biphenyl]-4-yl)ethyl)pyrrolidine-2-carboxamide], the half-inhibitory concentration (IC50) in test [1] (setting [3]) turned out to be 0.0731 µM; in test [2] (setting [3]), 0.00752 µM.
For the molecule `C#Cc1c(F)ccc2cc(O)cc(-c3ncc4c(N5CC6CCC(C5)N6)nc(OC[C@@H]5CCCN5CCCOCCC(=O)N[C@H](C(=O)N5C[C@H](O)C[C@H]5C(=O)N[C@@H](C)c5ccc(-c6c(F)cccc6Cl)cc5)C(C)(C)C)nc4c3F)c12` [Example 42, (2S,4R)-1-((2S)-2-(3-(3-((2S)-2-(((4-(3,8-diazabicyclo[3.2.1]octan-3-yl)-7-(8-ethynyl-7-fluoro-3-hydroxynaphthalen-1-yl)-8-fluoropyrido[4,3-d]pyrimidin-2-yl)oxy)methyl)pyrrolidin-1-yl)propoxy)propanamido)-3,3-dimethylbutanoyl)-N-((S)-1-(2′-chloro-6′-fluoro-[1,1′-biphenyl]-4-yl)ethyl)-4-hydroxypyrrolidine-2-carboxamide], the IC50 in test [1] (setting [3]) was found to be 0.0249 µM; in test [2] (setting [3]) it was 0.00778 µM.
